Assay: Stability of QC samples in rat plasma and tissue homogenates under different storage conditions
Assay type: in vitro ADME
Settings: in % (unit assumed)

Accuracy, −80°C for 30 days (Lung, 5 ng/mL): 95.98 ± 10.47
Accuracy, Ambient temperature for 4 h (Lung, 8 ng/mL): 94.73 ± 8.92
Accuracy, Autosampler at 4°C for 8 h (Lung, 8 ng/mL): 91.40 ± 9.71
Accuracy, Three freeze-thraw cycles (Lung, 8 ng/mL): 101.90 ± 10.45
Accuracy, −80°C for 30 days (Lung, 8 ng/mL): 99.03 ± 10.49
Accuracy, Ambient temperature for 4 h (Lung, 140 ng/mL): 102.38 ± 4.12
Accuracy, Autosampler at 4°C for 8 h (Lung, 140 ng/mL): 94.45 ± 5.92
Accuracy, Three freeze-thraw cycles (Lung, 140 ng/mL): 93.75 ± 8.53
Accuracy, −80°C for 30 days (Lung, 140 ng/mL): 92.58 ± 3.60
Accuracy, Ambient temperature for 4 h (Lung, 2400 ng/mL): 111.37 ± 9.27
Accuracy, Autosampler at 4°C for 8 h (Lung, 2400 ng/mL): 111.85 ± 9.53
Accuracy, −80°C for 30 days (Lung, 2400 ng/mL): 111.67 ± 3.39
Accuracy, Ambient temperature for 4 h (Plasma, 5 ng/mL): 101.95 ± 10.33
Accuracy, Autosampler at 4°C for 8 h (Plasma, 5 ng/mL): 106.67 ± 10.88
Accuracy, Three freeze-thraw cycles (Plasma, 5 ng/mL): 91.87 ± 8.63
Accuracy, −80°C for 30 days (Plasma, 5 ng/mL): 109.57 ± 12.66
Accuracy, Ambient temperature for 4 h (Plasma, 8 ng/mL): 108.88 ± 1.87
Accuracy, Autosampler at 4°C for 8 h (Plasma, 8 ng/mL): 105.01 ± 6.32
Accuracy, Three freeze-thraw cycles (Plasma, 8 ng/mL): 105.88 ± 1.87
Accuracy, −80°C for 30 days (Plasma, 8 ng/mL): 113.33 ± 5.32
Accuracy, Ambient temperature for 4 h (Plasma, 140 ng/mL): 87.67 ± 9.20
Accuracy, Autosampler at 4°C for 8 h (Plasma, 140 ng/mL): 87.88 ± 4.14
Accuracy, Three freeze-thraw cycles (Plasma, 140 ng/mL): 111.88 ± 1.87
Accuracy, −80°C for 30 days (Plasma, 140 ng/mL): 111.57 ± 9.60
Accuracy, Ambient temperature for 4 h (Plasma, 2400 ng/mL): 88.93 ± 6.01
Accuracy, Autosampler at 4°C for 8 h (Plasma, 2400 ng/mL): 89.25 ± 7.58
Accuracy, Three freeze-thraw cycles (Plasma, 2400 ng/mL): 89.17 ± 7.49
Accuracy, −80°C for 30 days (Plasma, 2400 ng/mL): 113.83 ± 7.14
Accuracy, Ambient temperature for 4 h (Small intestine, 5 ng/mL): 111.90 ± 12.07
Accuracy, Autosampler at 4°C for 8 h (Small intestine, 5 ng/mL): 111.67 ± 8.14
Accuracy, Three freeze-thraw cycles (Small intestine, 5 ng/mL): 111.17 ± 8.33
Accuracy, −80°C for 30 days (Small intestine, 5 ng/mL): 112.67 ± 8.78
Accuracy, Ambient temperature for 4 h (Small intestine, 8 ng/mL): 103.33 ± 3.39
Accuracy, Autosampler at 4°C for 8 h (Small intestine, 8 ng/mL): 100.03 ± 11.46
Accuracy, Three freeze-thraw cycles (Small intestine, 8 ng/mL): 100.60 ± 10.24
Accuracy, −80°C for 30 days (Small intestine, 8 ng/mL): 104.25 ± 9.49
Accuracy, Ambient temperature for 4 h (Small intestine, 140 ng/mL): 88.60 ± 9.48
Accuracy, Autosampler at 4°C for 8 h (Small intestine, 140 ng/mL): 89.80 ± 8.30
Accuracy, Three freeze-thraw cycles (Small intestine, 140 ng/mL): 87.88 ± 5.57
Accuracy, −80°C for 30 days (Small intestine, 140 ng/mL): 90.17 ± 7.26
Accuracy, Ambient temperature for 4 h (Small intestine, 2400 ng/mL): 107.48 ± 8.23
Accuracy, Autosampler at 4°C for 8 h (Small intestine, 2400 ng/mL): 103.75 ± 6.68
Accuracy, Three freeze-thraw cycles (Small intestine, 2400 ng/mL): 108.43 ± 8.65
Accuracy, −80°C for 30 days (Small intestine, 2400 ng/mL): 102.32 ± 8.65
Accuracy, Ambient temperature for 4 h (Spleen, 5 ng/mL): 110.33 ± 8.71
Accuracy, Autosampler at 4°C for 8 h (Spleen, 5 ng/mL): 112.92 ± 8.72
Accuracy, Three freeze-thraw cycles (Spleen, 5 ng/mL): 110.67 ± 8.57
Accuracy, −80°C for 30 days (Spleen, 5 ng/mL): 109.68 ± 12.57
Accuracy, Ambient temperature for 4 h (Spleen, 8 ng/mL): 99.28 ± 13.31
Accuracy, Autosampler at 4°C for 8 h (Spleen, 8 ng/mL): 93.42 ± 8.00
Accuracy, Three freeze-thraw cycles (Spleen, 8 ng/mL): 96.13 ± 11.98
Accuracy, −80°C for 30 days (Spleen, 8 ng/mL): 101.90 ± 10.25
Accuracy, Ambient temperature for 4 h (Spleen, 140 ng/mL): 93.13 ± 6.10
Accuracy, Autosampler at 4°C for 8 h (Spleen, 140 ng/mL): 95.27 ± 7.08
Accuracy, Three freeze-thraw cycles (Spleen, 140 ng/mL): 89.18 ± 8.23
Accuracy, −80°C for 30 days (Spleen, 140 ng/mL): 92.35 ± 2.70
Accuracy, Ambient temperature for 4 h (Spleen, 2400 ng/mL): 103.33 ± 8.37
Accuracy, Autosampler at 4°C for 8 h (Spleen, 2400 ng/mL): 105.67 ± 8.50
Accuracy, Three freeze-thraw cycles (Spleen, 2400 ng/mL): 107.73 ± 8.10
Accuracy, −80°C for 30 days (Spleen, 2400 ng/mL): 109.83 ± 4.96
Accuracy, Ambient temperature for 4 h (Stomach, 5 ng/mL): 111.00 ± 7.90
Accuracy, Autosampler at 4°C for 8 h (Stomach, 5 ng/mL): 112.17 ± 7.25
Accuracy, Three freeze-thraw cycles (Stomach, 5 ng/mL): 113.12 ± 9.97
Accuracy, −80°C for 30 days (Stomach, 5 ng/mL): 113.83 ± 2.99
Accuracy, Ambient temperature for 4 h (Stomach, 8 ng/mL): 107.32 ± 12.96
Accuracy, Autosampler at 4°C for 8 h (Stomach, 8 ng/mL): 98.37 ± 10.75
Accuracy, Three freeze-thraw cycles (Stomach, 8 ng/mL): 105.90 ± 9.13
Accuracy, −80°C for 30 days (Stomach, 8 ng/mL): 103.55 ± 9.49
Accuracy, Ambient temperature for 4 h (Stomach, 140 ng/mL): 88.15 ± 7.91
Accuracy, Autosampler at 4°C for 8 h (Stomach, 140 ng/mL): 86.38 ± 8.38
Accuracy, Three freeze-thraw cycles (Stomach, 140 ng/mL): 87.12 ± 5.24
Accuracy, −80°C for 30 days (Stomach, 140 ng/mL): 88.28 ± 6.31
Accuracy, Ambient temperature for 4 h (Stomach, 2400 ng/mL): 100.53 ± 7.29
Accuracy, Autosampler at 4°C for 8 h (Stomach, 2400 ng/mL): 99.52 ± 5.85
Accuracy, Three freeze-thraw cycles (Stomach, 2400 ng/mL): 104.90 ± 5.53
Accuracy, −80°C for 30 days (Stomach, 2400 ng/mL): 102.32 ± 8.22
Compound: C/C=C1/COC(=O)[C@H]2C(=O)N3CCc4c([nH]c5ccccc45)[C@@H]3C[C@@H]12 [Naucleactonin C]

Source: publication PMC9797307, “Measurement of Pharmacokinetics and Tissue Distribution of Four Compounds from Nauclea officinalis in Rat Plasma and Tissues through HPLC-MS/MS” (Journal of Analytical Methods in Chemistry, 2022)
